Key:
[1] = Thermogravimetry / DSC of eplerenone solvates (desolvation); type: physicochemical; settings: eplerenone solvate of the named solvent; extrapolated from final solvent weight loss step, thermogravimetric analysis at 10° C./minute under nitrogen purge
Method: Each sample (1-10 mg) was placed in an unsealed aluminum pan and heated at 10° C./minute.
Thermogravimetric analysis of solvates was performed using a TA Instruments TGA 2950 thermogravimetric analyzer. Samples were placed in an unsealed aluminum pan under nitrogen purge. Starting temperature was 25° C. with the temperature increased at a rate of about 10° C./minute.

[2] = test system: patients with heart failure after an acute myocardial infarction; assay: Example 20 clinical study: eplerenone plus CCB in heart failure following acute myocardial infarction; type: in vivo, human; settings: expected
Source text: Secondary endpoints include cardiovascular morbidity and mortality. […] (a) pulmonary edema (bilateral posttussive crackles extending at least 1⁄3 of the way up the lung fields in the absence of significant chronic pulmonary disease); or (b) chest x-ray showing pulmonary venous congestion with interstitial or alveolar edema; or (c) auscultatory evidence of a third heart sound (S3) with persistent tachycardia (>100 beats per minute). Eligible patients may be identified for inclusion at any time following emergency room evaluation and presumptive diagnosis of AMI with HF. […] Patients with implanted cardiac defibrillators are excluded. Patients will receive CCB therapy and may have received anticoagulants and antiplatelet agents, and may have received thrombolytics or emergency angioplasty. […] Serum potassium will be determined at 48 hours after initiation of treatment, at 1 and 5 weeks, at all other scheduled study visits, and within one week following any dose change. […] Vital signs (seated heart rate and BP), New York Heart Association (NYHA) functional class, adverse events, and selected concurrent medications will be recorded at every visit. […]

[3] = X-ray powder diffraction estimate of Form H content of dried solids; type: physicochemical; settings: for Estimated Weight Percent of Form H: dried solids from methyl ethyl ketone crystallization
Method: The weight percent of the diepoxide or 11,12-epoxide in each sample is given in Tables X-6A and X-6B, respectively. A micro-flea magnetic stirrer was added to each scintillation vial along with 1 mL of methyl ethyl ketone. The vials were loosely capped and the solid dissolved by heating to reflux on a hot plate with magnetic stirring. Once the solids were dissolved, the solutions were allowed to cool to room temperature on the hot plate. Magnetic stirring was maintained during the cooling period. After the solutions reached room temperature, the solids were collected by vacuum filtration and immediately analyzed by X-ray powder diffraction (XPRD). The solids were then placed in a 100° C. oven and dried for one hour at ambient pressure. The dried solids were analyzed by XPRD for Form H content by monitoring the area of the Form H diffraction peak at about 12.1 degrees two theta. All XPRD diffraction patterns were recorded using an Inel Multipurpose Diffractometer.
Variables in the design of the experiments included cooling rate, starting material purity level, and end point temperature of crystallization.
High endpoint was defined as 45° C. and low endpoint was defined as 5° C. High cooling rate was defined as 3° C./minute cooling and low cooling rate was defined as 0.1° C./minute cooling.
After a background reading was taken with the FTIR, 250 mL of methyl ethyl ketone was charged to a 1 L Mettler RC-1, MP10 reactor and stirred at 100 rpm. […] Agitation was increased to 500 rpm to suspend solids and the batch temperature was increased to 80° C. […] Black or white specks generally were visible in the resulting transparent solution. The batch temperature was then ramp cooled at the desired rate to the desired endpoint, where it was maintained for one hour before being pulled into a transfer flask and filtered. […] reactor, transfer flask and cake were then washed with 120 mL methyl ethyl ketone. Once the wash was pulled through the cake, the stopped. About 10 grams of each wet cake were dried in a vacuum oven under nominal conditions of 75° C. with a light nitrogen bleed. […]

hypertensive rats = assay: Assay C: Hypertensive Rat Model (renal artery clip); type: in vivo; settings: combination of calcium channel blocker and eplerenone versus either component alone, 12 to 24 weeks, expected
Source text: Assay “C”: Hypertensive Rat Model Male rats are made hypertensive by placing a silver clip with an aperture of 240 microns on the left renal artery, leaving the contralateral kidney untouched. Sham controls undergo the-same procedure but without attachment of the clip. One week prior to the surgery, animals to be made hypertensive are divided into separate groups and drug treatment is begun. […] The hearts are removed, weighed, measured and fixed in formalin. Collagen content of heart sections are evaluated using computerized image analysis of picrosirius stained sections.

[4] = test system: rats with myocardial infarction; assay: Assay D: Myocardial Infarction Rat Model (coronary ligation); type: in vivo; settings: combination of calcium channel blocker and eplerenone versus either component alone, six weeks, expected
Method: Assay “D”: Myocardial Infarction Rat Model: Male rats are anesthetized and the heart is exteriorized following a left sided thoracotomy. The left anterior descending coronary artery is ligated with a suture. The thorax is closed and the animal recovers. Sham animals have the suture passed through without ligation. One week prior to the surgery, animals to undergo infarction are divided into separate groups and drug treatment is begun. Groups of animals are administered vehicle, calcium channel blocker alone, eplerenone alone, and combinations of calcium channel blocker and eplerenone, at various doses, as follow: After six weeks, systolic and diastolic blood pressure, left ventricular end diastolic pressure, left ventricular dP/dT, and heart rate are evaluated. The hearts are removed, weighed, measured and fixed in formalin. Collagen content of heart sections are evaluated using computerized image analysis of picrosirius stained sections.

[5] = Form H content of the Form H seeding product by DSC; type: physicochemical; settings: cooling rate (0) 1.5° C./min, cooling endpoint (0) 25° C., 100.8% eplerenone seeded with Form H
Source text: The X-ray powder diffraction model, however, had not been tested for linearity beyond about 15% Form H. This experiment was the only one of the four experiments of this Example where Form H was created in the absence of the diepoxide.

[6] = test system: patients with mild to moderate hypertension; assay: Example 19 clinical study: eplerenone versus placebo co-administered with a calcium-channel blocker; type: in vivo, human
Source text: This multicenter, randomized, double-blind, placebo-controlled, placebo run-in, parallel group trial involving a minimum of 120 randomized patients with hypertension (seated diastolic blood pressure [seDBP] ≧95 mmHg and <110 mmHg and seated systolic BP [seSBP] <180 mmHg while taking a CCB) will consist of a one- to two-week pretreatment screening period followed by a two- to four-week single-blind placebo run-in period and an 8-week double-blind treatment period. Eligible patients will be patients currently receiving a CCB as part of their antihypertensive medication. […] The dose will not be changed for patients with adequate BP control. […] If the dose has been increased at Week 2, the patient will be reassessed at Week 6. […] If BP is uncontrolled at Week 6 and the dose has been increased at Week 2 or Week 4, the patient must be withdrawn from the study. If symptomatic hypotension (i.e., lightheadedness, dizziness, or syncope associated with low BP) occurs at any time during the study, or if DBP is ≧110 mmHg or SBP is ≧180 mmHg at any time during the trial, the patient must be withdrawn. Patients will receive study medication for a total of 8 weeks.
Patients will return to the clinic for evaluations at Weeks 0 (baseline), 2, 4, 6, 8, and 9. Heart rate, BP, adverse events and concomitant medication will be assessed at each visit. Hematology and biochemistry evaluations and urinalysis for safety will be at Weeks 0, 8, and 9. Serum potassium levels will be determined at Weeks 0 (baseline), 2, 4, 6, 8, and 9. Plasma renin, serum aldosterone, and plasma cortisol will be determined at Weeks 0 and 8. A 12-lead electrocardiogram and physical examination will be done at screening and at Week 9.
The study will consist of a one- to two-week pretreatment screening period followed by a two- to four-week single-blind placebo run-in treatment period, prior to randomization to an eight-week double-blind treatment period.
Eligible patients will be either currently receiving a CCB alone, or receiving a CCB as part of their antihypertensive medication. […] The dose will not be changed for patients with adequate BP control. […] If the dose has been increased at Week 2, the patient will be reassessed at Week 6. The dose of study medication will not be changed for patients with adequate BP control. […] If BP is uncontrolled at Week 6 and the dose has been increased at Week 2 or Week 4, the patient must be withdrawn from the study. The dose of study medication will not be changed for patients with adequate BP control. If symptomatic hypotension (i.e., lightheadedness, dizziness, or syncope associated with low BP) occurs at any time during the study, or if DBP is ≧110 mmHg or SBP is ≧180 mmHg at any time during the study, the patient must be withdrawn. Patients will receive study medication for a total of eight weeks.
Patients will return to the clinic for evaluations at Weeks 0, 2, 4, 6, 8, and 9. Heart rate, BP, adverse events and concomitant medication will be assessed at each visit. Hematology and biochemistry evaluations and urinalysis for safety will be at Weeks 0, 8, and 9. Serum potassium levels will be determined at Weeks 0, 2, 4, 6, 8, and 9. Plasma renin, serum aldosterone, and plasma cortisol will be determined at Weeks 0 and 8. […]
BP evaluations will be analyzed at each visit using two-way analysis of covariance (ANCOVA) with the baseline measurement as the covariate and treatment and center as factors. […]

[7] = test system: myocardial fibrosis in animal models; settings: literature (Klug et al; Brilla et al); cited from earlier work
[8] = CCB and eplerenone compared to CCB and placebo, Week 8
[9] = eplerenone 50-100 mg plus CCB versus CCB and placebo, eight weeks, hypertensive patients

Row | Compound | Desolvation Temperature [1] | also measured
1 | Ethanol | 166 °C | –
2 | Acetone | 117 °C | –
3 | CCCCCCCCO [n-Octanol] | 116 °C | –
4 | Tetrahydrofuran | 136 °C | –
5 | Chloroform | 125 °C | –
6 | Butyl Acetate | 108 °C | –
7 | Propylene Glycol | 188 °C | –
8 | Methyl Ethyl Ketone | 89 °C | –
9 | Isobutyl Acetate | 112 °C | –
10 | Isopropanol | 121 °C | –
11 | COC(=O)[C@@H]1CC2=CC(=O)CC[C@]2(C)[C@@]23O[C@@H]2C[C@@]2(C)[C@@H](CC[C@@]24CCC(=O)O4)[C@H]13 [eplerenone, pregn-4-ene-7,21-dicarboxylic acid, 9,11-epoxy-17-hydroxy-3-oxo, γ-lactone, methyl ester, (7α,11α,17α)-] | – | all cause mortality (primary end point) ([2]; eplerenone plus CCB relative to CCB alone): Improvement; secondary end points (cardiovascular mortality, hospitalizations, atrial fibrillation, stroke, quality of life) ([2]; eplerenone plus CCB versus CCB alone): Beneficial effects; Weight Percent Form H (XPRD) ([3]; cooling rate (+) 3° C./min, cooling endpoint (+) 45° C., impurity level (++) 61.1% purity eplerenone starting material, appears to be mixture of Form H and diepoxide): 100^5 Weight Percent; Estimated Weight Percent of Form H ([3]; 0% diepoxide in starting eplerenone mixture): None; Estimated Weight Percent of Form H ([3]; 1% diepoxide in starting eplerenone mixture): None; cardiac performance (hypertensive rats): improvements in cardiac performance; cardiac performance [4]: improvements in cardiac performance; Weight Percent Form H when analyzed by DSC [5]: 100 Weight Percent; change in active renin levels [6, 8]: greater increase; change in aldosterone levels [6, 8]: greater increase; change in mean diastolic blood pressure [6, 9]: greater for the dual therapy group, compared to monotherapy, but this difference did not reach statistical significance; change in systolic blood pressure [6, 9]: significant reduction; serious adverse events ([6]; eplerenone added to CCB therapy, eight weeks): no serious adverse events
12 | CC(=O)S[C@@H]1CC2=CC(=O)CC[C@]2(C)[C@H]2CC[C@@]3(C)[C@@H](CC[C@@]34CCC(=O)O4)[C@H]12 [spironolactone] | – | myocardial fibrosis [7]: prevents myocardial fibrosis
13 | t-Butyl Acetate | 109 °C | –
14 | Toluene | 83 °C | –
15 | Methyl Acetate | 103 °C | –
16 | Propyl Acetate | 130 °C | –
17 | CCCCO [n-Butanol] | 103 °C | –
18 | Ethyl Propionate | 122 °C | –

— patent US20030220312A1, “Epoxy-steroidal aldosterone antagonist and calcium channel blocker combination therapy for treatment of cardiovascular disorders” (G.D. Searle & Co., priority 2000, published 2003)
